Data taken from ChEMBL document CHEMBL3217623, “Tacrine-mefenamic acid hybrids for inhibition of acetylcholinesterase” (Medchemcomm, 2011).
Activity calls are given as the source filed them. The rule behind the calls is not given here.

These compounds were tested against T1, Acetylcholinesterase (Torpedo californica, UniProt P04058) (assay: Inhibition of Torpedo californica […] AChE using acetylthiocholine/DTNB as substrate preincubated for 10 mins followed by substrate addition measured every 30 secs for 30 mins by Ellmans method). Details: not given.
T1 sequence (P04058 whole entry): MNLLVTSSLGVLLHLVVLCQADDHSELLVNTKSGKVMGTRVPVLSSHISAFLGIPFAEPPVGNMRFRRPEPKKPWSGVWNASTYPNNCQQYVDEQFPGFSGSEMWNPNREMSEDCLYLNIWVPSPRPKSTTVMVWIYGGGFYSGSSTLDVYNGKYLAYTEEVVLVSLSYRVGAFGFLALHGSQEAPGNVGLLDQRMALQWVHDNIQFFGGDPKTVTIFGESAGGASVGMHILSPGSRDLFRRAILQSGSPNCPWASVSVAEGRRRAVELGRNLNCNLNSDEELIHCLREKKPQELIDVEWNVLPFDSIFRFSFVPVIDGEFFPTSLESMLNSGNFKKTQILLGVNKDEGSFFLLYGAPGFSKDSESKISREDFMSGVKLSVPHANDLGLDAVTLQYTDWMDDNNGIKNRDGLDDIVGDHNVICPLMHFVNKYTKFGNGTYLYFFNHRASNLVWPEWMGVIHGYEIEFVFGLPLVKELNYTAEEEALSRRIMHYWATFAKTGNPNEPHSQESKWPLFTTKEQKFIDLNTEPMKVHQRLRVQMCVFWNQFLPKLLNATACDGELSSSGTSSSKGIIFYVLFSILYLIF
Parameters: species or system Tetronarce californica

Row | Compound | IC50 [µM]
1 | Cc1cccc(Nc2ccccc2C(=O)NCC(=O)NCCCCCCCNc2c3c(nc4ccccc24)CCCC3)c1C | 0.00555
2 | Cc1cccc(Nc2ccccc2C(=O)NCCC(=O)NCCCCCCNc2c3c(nc4ccccc24)CCCC3)c1C | 0.985
3 | Cc1cccc(Nc2ccccc2C(=O)NCCCCCCCCCCNc2c3c(nc4ccccc24)CCCC3)c1C | 0.385
4 | Cc1cccc(Nc2ccccc2C(=O)NCCCCCCCCCCCCNc2c3c(nc4cc(Cl)ccc24)CCCC3)c1C | 2.36
5 | Cc1cccc(Nc2ccccc2C(=O)NCCCCCC(=O)NCCCCNc2c3c(nc4cc(Cl)ccc24)CCCC3)c1C | 0.0374
6 | Cc1cccc(Nc2ccccc2C(=O)NCCC(=O)NCCCNc2c3c(nc4cc(Cl)ccc24)CCCC3)c1C | 0.0203
7 | Cc1cccc(Nc2ccccc2C(=O)NCC(=O)NCCCCCCNc2c3c(nc4ccccc24)CCCC3)c1C | 0.0183
8 | Cc1cccc(Nc2ccccc2C(=O)NCCCCCCCCNc2c3c(nc4ccccc24)CCCC3)c1C | 0.0755
9 | Cc1cccc(Nc2ccccc2C(=O)NCCCCCC(=O)NCCCCCCNc2c3c(nc4ccccc24)CCCC3)c1C | 1.44
10 | Cc1cccc(Nc2ccccc2C(=O)NCCCCCCCCCNc2c3c(nc4ccccc24)CCCC3)c1C | 0.00154
11 | Cc1cccc(Nc2ccccc2C(=O)NCCCCCC(=O)NCCCNc2c3c(nc4ccccc24)CCCC3)c1C | 0.811
12 | Cc1cccc(Nc2ccccc2C(=O)NCCCC(=O)NCCCNc2c3c(nc4ccccc24)CCCC3)c1C | 3.73
13 | Cc1cccc(Nc2ccccc2C(=O)NCCCCCCNc2c3c(nc4cc(Cl)ccc24)CCCC3)c1C | 7.23
14 | Cc1cccc(Nc2ccccc2C(=O)NCCC(=O)NCCCCCCNc2c3c(nc4cc(Cl)ccc24)CCCC3)c1C | 0.00114
15 | Cc1cccc(Nc2ccccc2C(=O)NCCC(=O)NCCCCCCCNc2c3c(nc4ccccc24)CCCC3)c1C | 0.0139
16 | Cc1cccc(Nc2ccccc2C(=O)NCCCCCC(=O)NCCCCCCCCNc2c3c(nc4ccccc24)CCCC3)c1C | 0.0187
17 | Cc1cccc(Nc2ccccc2C(=O)NCCCCCC(=O)NCCCCNc2c3c(nc4ccccc24)CCCC3)c1C | 1.86
18 | Cc1cccc(Nc2ccccc2C(=O)NCCCCCCCNc2c3c(nc4ccccc24)CCCC3)c1C | 0.00139
19 | Clc1c2c(nc3ccccc13)CCCC2 | > 25
20 | Clc1ccc2c(Cl)c3c(nc2c1)CCCC3 | > 50
21 | Cc1cccc(Nc2ccccc2C(=O)NCC(=O)NCCCCCCCCNc2c3c(nc4cc(Cl)ccc24)CCCC3)c1C | 0.0398
22 | Cc1cccc(Nc2ccccc2C(=O)NCCCCCCCNc2c3c(nc4cc(Cl)ccc24)CCCC3)c1C | 1.38
23 | Cc1cccc(Nc2ccccc2C(=O)NCCCC(=O)NCCCCCCCNc2c3c(nc4cc(Cl)ccc24)CCCC3)c1C | 0.00791
24 | Cc1cccc(Nc2ccccc2C(=O)NCC(=O)NCCCNc2c3c(nc4cc(Cl)ccc24)CCCC3)c1C | 0.0281
25 | Cc1cccc(Nc2ccccc2C(=O)NCCC(=O)NCCCCCCCCNc2c3c(nc4ccccc24)CCCC3)c1C | 0.00858
26 | Cc1cccc(Nc2ccccc2C(=O)NCCCCCC(=O)NCCCCCCNc2c3c(nc4cc(Cl)ccc24)CCCC3)c1C | 0.00294
27 | Cc1cccc(Nc2ccccc2C(=O)NCC(=O)NCCCCCCNc2c3c(nc4cc(Cl)ccc24)CCCC3)c1C | 0.00765
28 | Cc1cccc(Nc2ccccc2C(=O)O)c1C [MEFENAMIC ACID] | > 1250

Each compound was assayed against T1, Acetylcholinesterase (assay: Inhibition of Torpedo californica […] AChE using acetylthiocholine/DTNB as substrate assessed as ROS-induced enzyme inactivation preincubated for 10 mins followed by substrate addition measured every 30 secs for 20 mins in presence of horseradish peroxidase and H2O2). Details: not given.
Parameters: species or system Tetronarce californica

Row | Compound | IC50 [nM]
29 | Cc1cccc(Nc2ccccc2C(=O)NCC(=O)NCCCCCCCNc2c3c(nc4ccccc24)CCCC3)c1C | 15.3
30 | Cc1cccc(Nc2ccccc2C(=O)NCCC(=O)NCCCCCCNc2c3c(nc4ccccc24)CCCC3)c1C | 40.2
31 | Cc1cccc(Nc2ccccc2C(=O)NCCCCCCCCCCNc2c3c(nc4ccccc24)CCCC3)c1C | 0.908
32 | Cc1cccc(Nc2ccccc2C(=O)NCCCCCCCCCCCCNc2c3c(nc4cc(Cl)ccc24)CCCC3)c1C | 16.2
33 | Cc1cccc(Nc2ccccc2C(=O)NCCCCCC(=O)NCCCCNc2c3c(nc4cc(Cl)ccc24)CCCC3)c1C | 0.299
34 | Cc1cccc(Nc2ccccc2C(=O)NCCC(=O)NCCCNc2c3c(nc4cc(Cl)ccc24)CCCC3)c1C | 21.3
35 | Cc1cccc(Nc2ccccc2C(=O)NCC(=O)NCCCCCCNc2c3c(nc4ccccc24)CCCC3)c1C | 54.8
36 | Cc1cccc(Nc2ccccc2C(=O)NCCCCCCCCNc2c3c(nc4ccccc24)CCCC3)c1C | 0.045
37 | Cc1cccc(Nc2ccccc2C(=O)NCCCCCC(=O)NCCCCCCNc2c3c(nc4ccccc24)CCCC3)c1C | 34
38 | Cc1cccc(Nc2ccccc2C(=O)NCCCCCCCCCNc2c3c(nc4ccccc24)CCCC3)c1C | 15.1
39 | Cc1cccc(Nc2ccccc2C(=O)NCCCCCC(=O)NCCCNc2c3c(nc4ccccc24)CCCC3)c1C | 20.2
40 | Cc1cccc(Nc2ccccc2C(=O)NCCCC(=O)NCCCNc2c3c(nc4ccccc24)CCCC3)c1C | 23
41 | Cc1cccc(Nc2ccccc2C(=O)NCCCCCCNc2c3c(nc4cc(Cl)ccc24)CCCC3)c1C | 1.02
42 | Cc1cccc(Nc2ccccc2C(=O)NCCC(=O)NCCCCCCNc2c3c(nc4cc(Cl)ccc24)CCCC3)c1C | 2.96
43 | Cc1cccc(Nc2ccccc2C(=O)NCCC(=O)NCCCCCCCNc2c3c(nc4ccccc24)CCCC3)c1C | 1.02
44 | Cc1cccc(Nc2ccccc2C(=O)NCCCCCC(=O)NCCCCCCCCNc2c3c(nc4ccccc24)CCCC3)c1C | 6.26
45 | Cc1cccc(Nc2ccccc2C(=O)NCCCCCC(=O)NCCCCNc2c3c(nc4ccccc24)CCCC3)c1C | 34
46 | Cc1cccc(Nc2ccccc2C(=O)NCCCCCCCNc2c3c(nc4ccccc24)CCCC3)c1C | 25.2
47 | Clc1c2c(nc3ccccc13)CCCC2 | 83.9
48 | Cc1cccc(Nc2ccccc2C(=O)NCC(=O)NCCCCCCCCNc2c3c(nc4cc(Cl)ccc24)CCCC3)c1C | 18.1
49 | Cc1cccc(Nc2ccccc2C(=O)NCCCCCCCNc2c3c(nc4cc(Cl)ccc24)CCCC3)c1C | 29.8
50 | Cc1cccc(Nc2ccccc2C(=O)NCCCC(=O)NCCCCCCCNc2c3c(nc4cc(Cl)ccc24)CCCC3)c1C | 6.55
51 | Cc1cccc(Nc2ccccc2C(=O)NCC(=O)NCCCNc2c3c(nc4cc(Cl)ccc24)CCCC3)c1C | 3.1
52 | Cc1cccc(Nc2ccccc2C(=O)NCCC(=O)NCCCCCCCCNc2c3c(nc4ccccc24)CCCC3)c1C | 4.07
53 | Cc1cccc(Nc2ccccc2C(=O)NCCCCCC(=O)NCCCCCCNc2c3c(nc4cc(Cl)ccc24)CCCC3)c1C | 7.39
54 | Cc1cccc(Nc2ccccc2C(=O)NCC(=O)NCCCCCCNc2c3c(nc4cc(Cl)ccc24)CCCC3)c1C | 3.46
55 | Cc1cccc(Nc2ccccc2C(=O)O)c1C [MEFENAMIC ACID] | 6120

What follows are compounds tested against Acetylcholinesterase (Torpedo californica) (UniProt P04058) (assay: Non-competitive inhibition of Torpedo californica […] AChE using acetylthiocholine as substrate at 0.2 to 5 uM measured for 2 mins by Lineweaver-Burk plot analysis). Details: Tetronarce californica.
Sequence of Acetylcholinesterase (Torpedo californica) (P04058 22-564 limits assumed): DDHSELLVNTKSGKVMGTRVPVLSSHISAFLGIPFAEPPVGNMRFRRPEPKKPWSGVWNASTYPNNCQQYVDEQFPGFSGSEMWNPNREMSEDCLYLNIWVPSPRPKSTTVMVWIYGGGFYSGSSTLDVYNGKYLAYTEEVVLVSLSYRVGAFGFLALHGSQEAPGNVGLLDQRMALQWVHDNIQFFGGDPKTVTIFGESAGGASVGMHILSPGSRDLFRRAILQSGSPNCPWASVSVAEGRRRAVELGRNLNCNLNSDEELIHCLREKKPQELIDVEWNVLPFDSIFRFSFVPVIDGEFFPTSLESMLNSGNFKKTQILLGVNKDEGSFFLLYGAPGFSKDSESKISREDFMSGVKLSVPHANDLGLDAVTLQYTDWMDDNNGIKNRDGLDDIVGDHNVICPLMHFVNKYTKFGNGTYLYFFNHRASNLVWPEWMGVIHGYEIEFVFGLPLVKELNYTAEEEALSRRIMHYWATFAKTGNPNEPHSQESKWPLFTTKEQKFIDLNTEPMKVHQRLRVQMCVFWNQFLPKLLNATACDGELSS

Row | Compound | inhibition
56 | Cc1cccc(Nc2ccccc2C(=O)NCCCCCCCCCCNc2c3c(nc4ccccc24)CCCC3)c1C | Active
